Data on three compounds can be found in patent US20110104175A1, “METHODS OF TREATMENT FOR PULMONARY FIBROSIS” (CEDARS-SINAI MEDICAL CENTER, priority 2008, published 2011).

Like-named read-outs stand apart in the source and are kept apart here. Peptide text beside a SMILES is read from it. Where only a bound is given, the exact number is not on record here.

Series [1] relates to wild-type, N-KO and C-KO mice. The text has this: (§1) Preparation of Mice. We generated mice expressing site-inactivated ACE by homologous recombination. N-KO mice express a full length ACE protein where the N-terminal catalytic site was inactivated by mutating two zinc-binding histidines (^395H and ^399H) to lysines. In the C-KO strain, ^993H and ^997H, which are responsible for the zinc binding and catalytic activity of the C-terminal enzymatic site, were mutated to lysine. The generation of these two strains of mice has been described in detail prior. Both N-KO and C-KO mice are a genetic mix of strains 129 and C57BL/6. Age and gender-matched littermate controls were used in all studies. All mice used in this study have only one functional renin gene. Drug Administration. The administration of bleomycin was performed under anesthesia by intratracheal instillation as previously described. A small skin incision was made to expose the trachea. A 25-gauge needle was inserted directly into the trachea without reaching the bifurcation and the animals were maintained on the surgical board with a 30 degree angle to ensure a correct diffusion of the drug or saline to both lungs. Bleomycin was solubilized in water, aliquoted, lyophilized and kept at −20 C. For each experiment a fresh aliquot was dissolved in saline and, unless otherwise indicated, administered in a dose of 1 mg/kg. The concentration of the solution was adapted to inject 2 μl/g, The skin was then sutured and the animal monitored until complete recovery.
(§2) Absorbance was measured at 550 nm.

Series [2] concerns wild-type and N-KO mice. The following applies: for cell content of the bronchoalveolar lavage: intratracheal bleomycin without S17092, two weeks.
Text: as §1, §2

In series [3] the test system is rats. The following applies: model of heart infarction; cited from earlier work.
The test system of series [4] is ACE N-domain and C-terminal domain. As to conditions: N-domain versus C-terminal domain; cited from earlier work.
The conditions of series [5]: mouse; cited from earlier work.
The conditions of series [6]: cited from earlier work.
The subject of series [7] is patients. As to conditions: cited from earlier work.
Series [8] has as its system wild-type, N-KO and C-KO mice. The experiment in a line: Weight loss after intratracheal instillation of bleomycin.
Text: as §1
Weight loss is a typical feature secondary to bleomycin administration and is associated with the severity of the pulmonary lesions.

The subject of series [9] is wild-type and N-KO mice. The series can be described thus: Survival analysis after intratracheal bleomycin.
Text: as §1, §2

The subject of series [10] is wild-type and N-KO mice. The experiment in a line: Lung histology 14 days after bleomycin. Type of series: in vivo, mouse. As to conditions: bleomycin 0.5 mg/kg. How it is done:
A group of 8 N-KO and 8 wild-type control mice received 0.5 mg/kg body weight of bleomycin. These animals were sacrificed 14 days later. Under deep anesthesia, the thoracic cage was opened to expose the lung. A 25 G needle was secured in the trachea and 0.8 to 1 ml of 10% buffered formalin was injected until the lungs were inflated. The trachea was then ligatured. The whole lung was carefully collected in one block with the heart and immersed in formalin overnight. The tissue was then dehydrated and paraffin embedded using standard techniques. Five micron coronal sections were obtained from the central part of the lung and were stained with either Masson's trichrome or with hematoxylin and eosin. For each animal, both right and left lobes of the lung were examined by a pathologist blinded to the genotype of the mice.

For `CC(=O)N[C@@H](CO)C(=O)N[C@@H](CC(=O)O)C(=O)N[C@@H](CCCCN)C(=O)N1CCC[C@H]1C(=O)O` [AcSDKP, N-acetyl-seryl-aspartyl-lysyl-proline] (Ac-SDKP-OH), in series [1] (wild-type mice, AcSDKP 1 mg/kg/day by osmotic minipump, bleomycin), the “collagen deposition, as assessed by hydroxyproline” value is listed as “did not significantly reduce the collagen deposition”. The lavage cellularity entry in series [2] (wild-type mice, AcSDKP 1 mg/kg/day by osmotic minipump, bleomycin on day 2, two weeks later, versus saline-filled minipump) is given as “substantially reduced lavage cellularity”. Moreover, in series [3], the collagen deposition entry is “prevented and even reversed collagen deposition”.

As for “Ac-Asp-(L)Pheψ(PO2—CH2)(L)Ala-Ala-NH2 (Ac-DFAA-NH2; also: Phe2-Ala3 peptide bond replaced by phosphinic ψ(PO2-CH2) bond) [RXP 407]”, the “dissociation constant for the ACE N-domain relative to the C-terminal domain” value in series [4] is given as “three orders of magnitude lower”. The stability in vivo entry in [5] is listed as “stable in vivo”. In addition, the “elevation of plasma Ac-SDKP” value in [6] (RXP 407 combined with Ac-SDKP infusion) was 16 fold. Also, the “increase of plasma level of Ac-SDKP” value in series [6] (mouse, RXP 407 alone) is recorded as not above 6 fold.

Turning to bleomycin, the “pulmonary collagen levels (hydroxyproline)” value in [1] (N-KO mice, two weeks after intratracheal bleomycin) was “did not increase pulmonary collagen levels”. For the same compound, the “hydroxyproline content of lungs” value in [1] (wild-type and C-KO mice, two weeks after intratracheal bleomycin) is “significantly increased the hydroxyproline content”. Also, the “cell content of the bronchoalveolar lavage” value in [2] (N-KO mice) is reported as 12.73±1.58 10^5 cells per lung; in series [2] (wild-type mice), 24.21±3.10 10^5 cells per lung. The “patients with lung injury who die of lung injury” value in series [7] (of the patients who develop lung injury) is recorded as 1-3%. The “patients developing sufficient lung injury to necessitate cessation of treatment” value in [7] (patients treated with bleomycin, meta-analysis) is 10 to 50%. Moreover, the “weight loss, C-KO mice versus wild-type controls” value in series [8] (C-KO mice) is given as “no significant difference in weight loss”. Besides, the results for the weight loss in [8] (N-KO mice) and in series [8] (wild-type animals) were 1.60±1.23% and 9.26±2.52%, respectively. Moreover, the long-term survival in [9] (N-KO mice, bleomycin 5 mg/kg body weight intratracheal) is listed as 4 of 15. For the same compound, the “mice surviving 12 days after drug administration” value in series [9] (wild-type mice, bleomycin 5 mg/kg body weight intratracheal) was 1 of 15. Also, the deaths entry in [9] (wild-type or N-KO mice, bleomycin 1 mg/kg body weight intratracheal) was “virtually no deaths”. For the same compound, the “lung histology (inflammation, collagen stripes) versus wild-type” value in series [10] (N-KO mice) is “much reduced”. Besides, the lung histology result in [10] (wild-type mice) was “extensive lung injury”.
